These results are taken from patent publication US8853423B2, “Indane estrogen receptor modulators and uses thereof” (Seragon Pharmaceuticals, Inc., priority 2010, dated 2014).

What all share (format): cell-based
For one assay, the system named is MCF-7 cells. Description: Breast Cancer Cell Viability Assay (MCF7 Viability Assay, CellTiter-Glo). The note with it: 5 days' compound exposure; for pIC50: Homo sapiens, MCF7, 120 h. The method, then:
MCF-7 cells were adjusted to a concentration of 20,000 cells per mL in RPMI containing 10% FBS and 20 mM HEPES. 16 microliters of the cell suspension (320 cells) was added to each well of a 384 well plate, and the cells were incubated overnight to allow the cells to adhere. The following day an eleven point, serial semilog dilution of each compound was added to the cells in 16 μL at a final concentration ranging from 0.3-0.000003 μM. After 5 days' compound exposure, 16 μL of CellTiter-GLo (Promega, Madison Wis.) was added to the cells the relative luminescence units (RLUs) of each well was determined. CellTiter-Glo added to 32 μL of medium without cells was used to obtain a background value. The Percent viability of each sample was determined as follows: (RLU sample-RLU background/RLU untreated cells-RLU background)×100=% viability.

The target of assay [1] is T1, ER-α (Homo sapiens, UniProt P03372).
T1 construct: endogenous in cells; host or cells: MCF-7
T1 sequence (P03372 1-595): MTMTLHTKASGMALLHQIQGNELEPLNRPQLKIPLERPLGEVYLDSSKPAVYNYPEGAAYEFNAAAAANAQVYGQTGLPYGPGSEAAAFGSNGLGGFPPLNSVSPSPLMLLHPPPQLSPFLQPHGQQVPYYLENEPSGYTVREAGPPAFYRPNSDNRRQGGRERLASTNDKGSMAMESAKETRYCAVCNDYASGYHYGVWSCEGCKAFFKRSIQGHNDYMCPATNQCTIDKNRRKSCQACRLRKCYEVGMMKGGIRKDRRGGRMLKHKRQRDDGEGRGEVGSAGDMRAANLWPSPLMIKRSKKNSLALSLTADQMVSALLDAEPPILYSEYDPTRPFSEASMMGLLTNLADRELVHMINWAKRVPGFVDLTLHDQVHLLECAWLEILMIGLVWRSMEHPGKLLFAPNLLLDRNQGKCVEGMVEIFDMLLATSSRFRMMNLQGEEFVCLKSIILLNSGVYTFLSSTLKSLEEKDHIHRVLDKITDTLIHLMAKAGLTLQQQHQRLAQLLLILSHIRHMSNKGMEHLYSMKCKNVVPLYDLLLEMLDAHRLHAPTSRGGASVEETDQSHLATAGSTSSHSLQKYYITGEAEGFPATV
The assay is described as follows: ER-α in Cell Western Assay (ER1D5). The settings on record: MCF-7 cells, ER1D5 antibody, 4 or 24 hr post compound addition, read-out: ER In-Cell Western Assay (ER1D5); for Emax: MCF7, Max Response; for DC50: IC50. The method, then: (§1) MCF-7 cells were adjusted to a concentration of 200,000 cells per mL in RPMI containing 10% charcoal-stripped FBS and 20 mM HEPES. 16 microliters of the cell suspension (3200 cells) was added to each well of a poly-D-lysine 384 well plate, and the cells were incubated overnight to allow the cells to adhere. The following day an eleven point, serial semilog dilution of each compound was added to the cells in 16 μL at a final concentration ranging from 0.3-0.000003 μM. At 4 or 24 hr post compound addition, the cells were fixed (10% formalin in PBS) for 20 minutes. Cells were permeabalized in PBS 0.1% Triton and blocked with LICOR blocking buffer (50 μl/well, 90′). The wells were then incubated overnight at 4° C. with ER1D5 (Santa Cruz Biotechnology) diluted 1:100 in LICOR blocking buffer/0.1% Tween-20. Wells which were treated with blocking buffer with Tween but no antibody were used as a background control. Wells were washed with 0.1% Tween-20/PBS and then incubated in goat anti-mouse IRDye™ 800CW (LICOR Inc.; 1:1000) and DRAQ5 DNA dye (1:2000 for 2 mM stock) diluted in LICOR blocking buffer containing 0.1% Tween-20 and 0.01% SDS for 60 minutes. Cells were washed (50 μl/well, 5′ each) in 0.1% Tween-20/PBS. Plates were scanned on a LICOR Odyssey infrared imaging system. Integrated intensities in the 800 nm channel and 700 nm channel were measured to determine levels of ER and DNA respectively. Percent ER levels were determined as follows: (Integrated intensity 800 nm sample/integrated intensity 700 nm sample)/(Integrated intensity 800 nm untreated cells/integrated intensity 700 nm untreated cells)×100=% ER levels.

Assay [2] addresses T1, ER-α. The assay is described as follows: ER-α in Cell Western Assay (SP1). The settings on record: MCF-7 cells, SP1 rabbit monoclonal Ab, 4 or 24 hr post compound addition, read-out: ER In-Cell Western Assay (SP1); for Emax: MCF7, Max Response; for DC50: IC50. The method, then:
as §1, with “with SP1 rabbit monoclonal Ab (Thermo Scientific)” for “with ER1D5 (Santa Cruz Biotechnology)”, “diluted 1:1000” for “diluted 1:100”, “goat anti-rabbit” for “goat anti-mouse”

pIC50: −log10 of the molar value.

On to `Oc1ccc(C2Cc3cc(O)ccc3C2c2ccc(OCCN3CCCC3)cc2)cc1` (stereo not drawn) [Example 1, 2-(4-Hydroxyphenyl)-1-(4-(2-(pyrrolidin-1-yl)ethoxy)phenyl)-2,3-dihydro-1H-inden-5-ol], for which, in the assay with MCF-7 cells, the “MCF7 Viability Assay Max Response” value is “++ (++ = a single % value ≧50%)” and the negative-log IC50 (pIC50) is ≥ 9.00. Further, at ER-α [1], the Emax lay within 40 to 65% and the DC50 was ≤ 1 nM. On ER-α [2], the Emax is 60 to 85% and the DC50 is ≤ 1 nM.
For the compound `C[C@@H]1CCN([C@@H](C)COc2ccc(C3c4ccc(O)c(F)c4CC3c3ccc(O)cc3)cc2)C1` (stereo partly drawn) [Example 5, 4-Fluoro-2-(4-hydroxyphenyl)-1-(4-((S)-2-((R)-3-methylpyrrolidin-1-yl)propoxy)phenyl)-2,3-dihydro-1H-inden-5-ol], in the assay with MCF-7 cells, the “MCF7 Viability Assay Max Response” value was “++ (++ = a single % value ≧50%)” and the negative-log IC50 (pIC50) is ≥ 9.00. In addition, on ER-α [2], the Emax is ≥ 85% and the DC50 was ≤ 1 nM.
The like results for `C[C@@H]1CCN([C@@H](C)COc2ccc(C3c4ccc(O)cc4CC3c3ccc(F)cc3)cc2)C1` (stereo partly drawn) [Example 6, 2-(4-Fluorophenyl)-1-(4-((S)-2-((R)-3-methylpyrrolidin-1-yl)propoxy)phenyl)-2,3-dihydro-1H-inden-5-ol] were, in that order, “++ (++ = a single % value ≧50%)”, < 9.00, ≥ 85% and ≤ 1 nM.
With `C[C@@H]1CCN([C@@H](C)COc2ccc(C3c4ccc(O)cc4CC3c3ccccc3)cc2)C1` (stereo partly drawn) [Example 4, 1-(4-((S)-2-((R)-3-Methylpyrrolidin-1-yl)propoxy)phenyl)-2-phenyl-2,3-dihydro-1H-inden-5-ol], in the assay with MCF-7 cells, the “MCF7 Viability Assay Max Response” value was “++ (++ = a single % value ≧50%)” and the pIC50 is ≥ 9.00. Besides, on ER-α [1], the Emax is ≥ 65% and the DC50 is ≤ 1 nM. Further, at ER-α [2], the Emax was ≥ 85% and the DC50 was ≤ 1 nM.
Turning to `C[C@@H]1CCN([C@@H](C)COc2ccc(C3c4ccc(O)cc4CC3c3cccc(O)c3)cc2)C1` (stereo partly drawn) [Example 3, 2-(3-Hydroxyphenyl)-1-(4-((S)-2-((R)-3-methylpyrrolidin-1-yl)propoxy)phenyl)-2,3-dihydro-1H-inden-5-ol], in the assay on MCF-7 cells, the “MCF7 Viability Assay Max Response” value was “++ (++ = a single % value ≧50%)” and the pIC50 was ≥ 9.00. On ER-α [1], the Emax was ≥ 65% and the DC50 was ≤ 1 nM. Also, on ER-α [2], the Emax is ≥ 85% and the DC50 was ≤ 1 nM.
As for `Oc1ccc2c(c1)CC(c1ccccc1)C2c1ccc(OCCN2CCCC2)cc1` (stereo not drawn) [Example 7, 2-Phenyl-1-(4-(2-(pyrrolidin-1-yl)ethoxy)phenyl)-2,3-dihydro-1H-inden-5-ol], in the assay on MCF-7 cells, the “MCF7 Viability Assay Max Response” value was “++ (++ = a single % value ≧50%)” and the pIC50 is < 9.00. In addition, at ER-α [2], the Emax was 60 to 85% and the DC50 was ≤ 1 nM.
Take `C[C@@H]1CCN([C@@H](C)COc2ccc(C3c4ccc(O)cc4CC3c3ccc(O)cc3)cc2)C1` (stereo partly drawn) [Example 2, 2-(4-Hydroxyphenyl)-1-(4-((S)-2-((R)-3-methylpyrrolidin-1-yl)propoxy)phenyl)-2,3-dihydro-1H-inden-5-ol]: in the assay with MCF-7 cells, the “MCF7 Viability Assay Max Response” value is listed as “++ (++ = a single % value ≧50%)” and the pIC50 is ≥ 9.00. Also, at ER-α [1], the Emax was ≥ 65% and the DC50 was ≤ 1 nM. Moreover, at ER-α [2], the Emax is ≥ 85% and the DC50 was ≤ 1 nM.

Broadly, the pIC50 is the negative decadic logarithm of the IC50, by convention in mol/L. A low value points to a high IC50.
